Measurements reported in US7465716B2, “Targeted drug delivery with a hyaluronan ligand” (The Regents of the University of California, priority 1999, dated 2008).

Columns and labels:
[1] = tested on: CV-1 cells; test: Chemosensitivity assay (SRB staining), CV-1 cells; format: cell-based, monkey; settings: compared with B16F10 cells / free DOX
Source text: FIGS. 5A and 5B show the DOX dose dependence cytotoxicity determined after treatment of B16F10 and CV-1 cells with non-encapsulated DOX and DOX-loaded HAL. […] To examine the specificity of the HAL we treated CV-1 cells with the three formulations. CV-1 cells express a very low level of CD44. […] Furthermore, the cytotoxicity of both the HAL and POPG liposomes was. similar, confirming the low interaction of the liposomes with CV-1 cells.
The cytotoxic effect of free DOX or Liposomes-encapsulated DOX on the cells was assayed colorimetrically by the sulforhodamine B (SRB) staining. A sample containing 16,000 B16F10 or 25,000 CV-1 cells (from an exponentially growing culture) in 100 μl aliquots were plated onto 96-well flat bottom microtiter plates. The culture plates were incubated for 24 hours at 37° C. and 5% CO2 and then the medium in each well was replaced with 100 μl serum-free and antibiotic-free medium containing various concentration of free or liposome-encapsulated DOX. For each 10-fold increase in drug concentration, four drug concentration levels were tested. […] The cultures were incubated at 4° C. for 1 h and then washed and analyzed for SRB staining of the monolayers as described. The measurement of the absorbance of the SRB at 564 nm in the monolayers was determined by an Optimax microplate reader (Molecular Devices, Sunnyvale, Calif.). […]

[2] = tested on: B16F10 lung tumors; test: Chemotherapy of mice with B16F10 lung tumors (Table 4); format: in vivo, C57/BL6 mice; settings: treated day 6, counted day 14, N = 9; HAL-dox and POPG-dox at 8 mg/kg
Description: The drug delivery systems of this invention can be tested in the B16F10 lung metastases model. The number of B16F10 tumor nodules was enumerated in the lung of syngeneic C57/BL6 mice 14days after intravenouss injection into the tail vein of 1×10^5, 3×10^5 and 1×10^6 B16F10 cells/mouse in a volume of 0.2 mL PBS. These cell numbers were used because they span the range reported to give a countable number of nodules in previous investigations. The animals were sacrificed and the lungs were removed 14 days post inoculation of B16F10 cells, and then fixed in Bouin's solution. The visible tumor nodules were assessed and counted under dissecting microscope. N=9 per group. The dose of 3×10^5 cells/mouse yielded a suitable number of nodules to provide an adequate statistical analysis. […] The distribution of hyaluronanliposomes in B16F10 tumorial mice was measured on day 14 after innoculation. […] The animals (n=7) were sacrificed 3 hours after injection, the organs removed, the lungs were fixed in Bouin's solution and the radioactivity in each organ determined by gamma scintillation spectroscopy (Table 3).
The chemotherapeutic efficacy of doxorubicin delivered in various forms in the B16F10 lung tumor model was compared by counting the nodules on day 14 after innoculation of mice with B16F10. […] The animals were sacrificed and tumor nodules: counted on day 14. […]

[3] = tested on: B16-F10 tumor nodules in the lung; test: Effect of liposome composition on B16-F10 lung tumor nodules (Table 5); format: in vivo, C57/BI6 mice; settings: Doxorubicin 3 mg/kg on day 6, 10 mice/group
Description: As shown above, the presence of the targeting hyaluronan lipid, the type of lipid anchor that the hyaluronan was attached to and the lipid composition of the targeted liposomes influenced the anti-tumor effect. In this example, doxorubicin was encapsulated in liposomes of different compositions (described below in the liposome preparation) and injected into C57/BI6 mice at a dose of 3 mg/kg on day 6 after the mice had received the B16-F10 tumor as described above.
A specific, non-limiting example of doxorubicin loaded lipsome preparation involves thin lipid film hydration followed by sonication and extrusion. Briefly, the lipid components were weighed and dissolved in chloroform at the desired molar ratio(POPC:Chol:HA4-POPE:aT 60:40:3:0.1; POPC:Chol:POPG:aT 60:40:9:0.1; HSPC:Chol:PEG-DSPE:aT 56.2:38.3:5.3:0.1; HSPC:Chol:DPPG:aT 56.2:38.3:5.3:0.1; HSPC:Chol:HA4-DPPE:aT 56.2:38.3:5.3:0.1). […] Phospholipid concentration was determined by a phosphorous assay. DOX concentrations were determined by measurement of absorbance at 480 nm (using a molar coefficient=12,500) after solubilization of the liposomes in 90% isopropyl alcohol containing 0.075 M HCl. […] For both POPC and HSPC liposomes, mean vesicle diameter as measured by dynamic light scattering using the multimodal program was 120-150 nm (SD<35% of the mean) with a monodisperse particle size distribution. […]

[4] = tested on: B16-F10 tumor nodules in the lung; test: Dose response on B16-F10 lung tumor nodules (Table 6); format: in vivo, C57/BI6 mice
Description: In this experiment groups of 10 animals were inoculated with the tumor cells on day zero and treated with the various formulations on day 6 as described above. To keep the lipid concentration constant as the dose of liposome encapsulated drug was reduced, HAL-Dox formulations were diluted with empty DSPG liposome (HSPC:Chol:DSPG 60:40:9 mole ration) to maintain the total lipid concentration at 1 micromole.

[5] = 0.3 mg/kg, HAL-Dox = HAL-DPPE encapsulated Dox
[6] = 1 mg/kg, HAL-Dox = HAL-DPPE encapsulated Dox
[7] = 3 mg/kg, HAL-Dox = HAL-DPPE encapsulated Dox
[8] = 10 mg/kg, treated day 6, groups of 10

## COc1cccc2c1C(=O)c1c(O)c3c(c(O)c1C2=O)C[C@@](O)(C(=O)CO)C[C@@H]3O[C@H]1C[C@H](N)[C@H](O)[C@H](C)O1 [free DOX, Doxorubicin]
[1]
  cytotoxicity to CV-1 cells (in words): significantly lower
[2]
  # nodules Mean: 56.11 ± 49.48
  # nodules Median: 45
[3]
  # nodules Mean: 171.60 ± 71.79
  # nodules Median: 179
[4]; [5]
  # nodules Mean: 248.1 ± 56.9
  # nodules Median: 250.5
[4]; [6]
  # nodules Mean: 265.9 ± 34.5
  # nodules Median: 277
[4]; [7]
  # nodules Mean: 208.2 ± 82.1
  # nodules Median: 191
[4]; [8]
  # nodules Mean: 157.9 ± 70.6
  # nodules Median: 151
